Entries after “also recorded” stand apart in the source; their conditions may differ.

Series [1] concerns the target T1, ABCC3/MRP3 (Homo sapiens, UniProt O15438).
T1 construct: purchased Solvo Biotechnology (Budapest, Hungary); host or cells: HEK-293 cells
Kind of series: MRP3 vesicular transport: ATP- and benzbromarone-sensitive CDCF uptake into inverted HEK-293 membrane vesicles. The series is classed as biochemical.

The subject of series [2] is ABCG2/BCRP. Further details: method as in Telbisz et al., 2021. The settings on record: vesicular transporter assay, measured previously; ref Telbisz et al., 2021; cited from earlier work.
Series [3] deals with T2, OCT1/SLC22A1 (Homo sapiens, UniProt O15245).
T2 construct: expressed in transfected cells; host or cells: HEK-293 cells, lentiviral transduction
T2 sequence (O15245 1-554): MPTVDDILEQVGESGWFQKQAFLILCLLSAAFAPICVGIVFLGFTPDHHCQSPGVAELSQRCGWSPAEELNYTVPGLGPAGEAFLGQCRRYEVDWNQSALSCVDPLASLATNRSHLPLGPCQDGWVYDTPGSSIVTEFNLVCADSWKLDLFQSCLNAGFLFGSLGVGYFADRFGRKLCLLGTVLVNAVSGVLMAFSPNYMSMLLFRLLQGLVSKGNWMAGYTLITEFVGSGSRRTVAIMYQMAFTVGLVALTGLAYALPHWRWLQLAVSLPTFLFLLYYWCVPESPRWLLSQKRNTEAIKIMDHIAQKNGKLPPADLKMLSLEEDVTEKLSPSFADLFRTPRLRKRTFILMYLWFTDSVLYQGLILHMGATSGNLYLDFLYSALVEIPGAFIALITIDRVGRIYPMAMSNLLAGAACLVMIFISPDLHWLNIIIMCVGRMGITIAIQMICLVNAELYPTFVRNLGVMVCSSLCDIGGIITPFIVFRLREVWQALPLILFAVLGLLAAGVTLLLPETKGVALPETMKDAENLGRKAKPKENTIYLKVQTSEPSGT
Kind of series: OCT1-dependent metformin uptake in OCT1-overexpressing HEK-293 cells. The series is classed as cell-based.

The test system of series [4] is ABCB1/Pgp. On the set-up: method as in Telbisz et al., 2021. The settings on record: vesicular transporter assay, measured previously; ref Telbisz et al., 2021; cited from earlier work.
Series [5] concerns the target T3, ABCB11/BSEP (Homo sapiens, UniProt O95342).
T3 construct: purchased Solvo Biotechnology (Budapest, Hungary); host or cells: HEK-293 cells
The experiment in a line: BSEP vesicular transport: ATP- and glyburide-sensitive taurocholate uptake into inverted HEK-293 membrane vesicles. The format is biochemical. Particulars: taurocholate 2 µM, 37 °C, 10 min, HEK-293 vesicles.

Series [6] deals with T4, MATE1/SLC47A1 (Homo sapiens, UniProt Q96FL8).
T4 construct: expressed in transfected cells; host or cells: MDCKII cells, lentiviral transduction
T4 sequence (Q96FL8 1-570): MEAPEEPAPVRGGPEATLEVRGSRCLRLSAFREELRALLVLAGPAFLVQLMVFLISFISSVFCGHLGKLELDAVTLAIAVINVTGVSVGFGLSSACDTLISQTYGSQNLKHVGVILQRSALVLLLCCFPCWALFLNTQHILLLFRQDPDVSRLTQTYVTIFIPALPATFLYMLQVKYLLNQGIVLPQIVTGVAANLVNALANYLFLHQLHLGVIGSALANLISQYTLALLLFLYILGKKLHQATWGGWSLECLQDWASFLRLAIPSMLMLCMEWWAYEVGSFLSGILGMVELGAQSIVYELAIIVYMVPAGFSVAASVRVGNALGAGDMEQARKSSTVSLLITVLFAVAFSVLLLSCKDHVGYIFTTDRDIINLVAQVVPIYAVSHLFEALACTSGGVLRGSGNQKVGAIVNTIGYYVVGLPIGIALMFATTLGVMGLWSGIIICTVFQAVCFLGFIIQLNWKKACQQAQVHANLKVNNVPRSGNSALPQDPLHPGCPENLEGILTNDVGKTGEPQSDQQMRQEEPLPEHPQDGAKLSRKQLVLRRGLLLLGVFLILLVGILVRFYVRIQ
The experiment in a line: MATE1-dependent metformin uptake in MATE1-overexpressing MDCKII cells. The format is cell-based. Particulars: metformin 10 µM, 10 min, 37 °C, MDCKII cells.

For series [7] the following is noted: Kaletra 400 mg lopinavir and 100 mg ritonavir in combination; cited from earlier work.
Series [8] has as its target T5, ABCC2/MRP2 (Homo sapiens, UniProt Q92887).
T5 construct: made in house; host or cells: Sf9 insect cells (baculovirus)
Kind of series: MRP2 vesicular transport: ATP-dependent CDCF uptake into inverted Sf9 membrane vesicles. The format is biochemical. The settings on record: CDCF 5 µM, 37 °C, 10 min, Sf9 vesicles.

Series [9] deals with T6, ABCC4/MRP4 (Homo sapiens, UniProt O15439).
T6 construct: purchased Solvo Biotechnology (Budapest, Hungary); host or cells: HEK-293 cells
T6 sequence (O15439 1-1325): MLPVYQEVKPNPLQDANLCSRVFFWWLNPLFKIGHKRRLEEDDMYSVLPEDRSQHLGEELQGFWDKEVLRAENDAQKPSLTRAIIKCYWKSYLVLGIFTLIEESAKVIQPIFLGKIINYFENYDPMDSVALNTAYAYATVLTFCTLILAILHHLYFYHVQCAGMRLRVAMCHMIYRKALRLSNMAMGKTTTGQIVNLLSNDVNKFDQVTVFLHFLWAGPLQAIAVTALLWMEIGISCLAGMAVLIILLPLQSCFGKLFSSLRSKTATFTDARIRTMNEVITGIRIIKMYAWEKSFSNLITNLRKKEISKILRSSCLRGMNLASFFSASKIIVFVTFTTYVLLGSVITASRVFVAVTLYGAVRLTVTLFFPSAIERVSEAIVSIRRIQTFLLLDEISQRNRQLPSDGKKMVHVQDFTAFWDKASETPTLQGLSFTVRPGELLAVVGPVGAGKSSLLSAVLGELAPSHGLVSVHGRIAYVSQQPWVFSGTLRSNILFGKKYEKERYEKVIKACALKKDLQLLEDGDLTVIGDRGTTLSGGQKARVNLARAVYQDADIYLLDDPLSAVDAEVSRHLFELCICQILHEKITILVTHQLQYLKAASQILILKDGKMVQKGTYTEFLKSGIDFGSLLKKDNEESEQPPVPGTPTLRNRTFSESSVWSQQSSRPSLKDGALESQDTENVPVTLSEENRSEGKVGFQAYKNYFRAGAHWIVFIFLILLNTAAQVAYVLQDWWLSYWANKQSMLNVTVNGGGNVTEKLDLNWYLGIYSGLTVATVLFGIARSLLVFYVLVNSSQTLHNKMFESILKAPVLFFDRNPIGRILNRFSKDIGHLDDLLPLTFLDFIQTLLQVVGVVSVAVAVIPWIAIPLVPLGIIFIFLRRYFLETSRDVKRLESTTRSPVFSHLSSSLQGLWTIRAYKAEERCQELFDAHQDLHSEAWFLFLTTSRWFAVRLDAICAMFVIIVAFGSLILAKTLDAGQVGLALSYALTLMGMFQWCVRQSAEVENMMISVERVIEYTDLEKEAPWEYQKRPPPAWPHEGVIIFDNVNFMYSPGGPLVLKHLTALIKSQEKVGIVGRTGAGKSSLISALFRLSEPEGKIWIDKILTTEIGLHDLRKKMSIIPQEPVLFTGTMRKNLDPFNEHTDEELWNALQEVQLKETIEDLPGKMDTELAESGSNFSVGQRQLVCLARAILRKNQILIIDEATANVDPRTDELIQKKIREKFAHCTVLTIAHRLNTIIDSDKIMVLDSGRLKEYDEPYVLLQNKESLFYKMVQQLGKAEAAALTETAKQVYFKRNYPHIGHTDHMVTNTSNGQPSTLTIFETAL
The experiment in a line: MRP4 vesicular transport: ATP-dependent DHEAS uptake into inverted HEK-293 membrane vesicles. Particulars: DHEAS 0.5 µM, 32 °C, […], HEK-293 vesicles. The format is biochemical.

T1 sequence (O15438 whole entry): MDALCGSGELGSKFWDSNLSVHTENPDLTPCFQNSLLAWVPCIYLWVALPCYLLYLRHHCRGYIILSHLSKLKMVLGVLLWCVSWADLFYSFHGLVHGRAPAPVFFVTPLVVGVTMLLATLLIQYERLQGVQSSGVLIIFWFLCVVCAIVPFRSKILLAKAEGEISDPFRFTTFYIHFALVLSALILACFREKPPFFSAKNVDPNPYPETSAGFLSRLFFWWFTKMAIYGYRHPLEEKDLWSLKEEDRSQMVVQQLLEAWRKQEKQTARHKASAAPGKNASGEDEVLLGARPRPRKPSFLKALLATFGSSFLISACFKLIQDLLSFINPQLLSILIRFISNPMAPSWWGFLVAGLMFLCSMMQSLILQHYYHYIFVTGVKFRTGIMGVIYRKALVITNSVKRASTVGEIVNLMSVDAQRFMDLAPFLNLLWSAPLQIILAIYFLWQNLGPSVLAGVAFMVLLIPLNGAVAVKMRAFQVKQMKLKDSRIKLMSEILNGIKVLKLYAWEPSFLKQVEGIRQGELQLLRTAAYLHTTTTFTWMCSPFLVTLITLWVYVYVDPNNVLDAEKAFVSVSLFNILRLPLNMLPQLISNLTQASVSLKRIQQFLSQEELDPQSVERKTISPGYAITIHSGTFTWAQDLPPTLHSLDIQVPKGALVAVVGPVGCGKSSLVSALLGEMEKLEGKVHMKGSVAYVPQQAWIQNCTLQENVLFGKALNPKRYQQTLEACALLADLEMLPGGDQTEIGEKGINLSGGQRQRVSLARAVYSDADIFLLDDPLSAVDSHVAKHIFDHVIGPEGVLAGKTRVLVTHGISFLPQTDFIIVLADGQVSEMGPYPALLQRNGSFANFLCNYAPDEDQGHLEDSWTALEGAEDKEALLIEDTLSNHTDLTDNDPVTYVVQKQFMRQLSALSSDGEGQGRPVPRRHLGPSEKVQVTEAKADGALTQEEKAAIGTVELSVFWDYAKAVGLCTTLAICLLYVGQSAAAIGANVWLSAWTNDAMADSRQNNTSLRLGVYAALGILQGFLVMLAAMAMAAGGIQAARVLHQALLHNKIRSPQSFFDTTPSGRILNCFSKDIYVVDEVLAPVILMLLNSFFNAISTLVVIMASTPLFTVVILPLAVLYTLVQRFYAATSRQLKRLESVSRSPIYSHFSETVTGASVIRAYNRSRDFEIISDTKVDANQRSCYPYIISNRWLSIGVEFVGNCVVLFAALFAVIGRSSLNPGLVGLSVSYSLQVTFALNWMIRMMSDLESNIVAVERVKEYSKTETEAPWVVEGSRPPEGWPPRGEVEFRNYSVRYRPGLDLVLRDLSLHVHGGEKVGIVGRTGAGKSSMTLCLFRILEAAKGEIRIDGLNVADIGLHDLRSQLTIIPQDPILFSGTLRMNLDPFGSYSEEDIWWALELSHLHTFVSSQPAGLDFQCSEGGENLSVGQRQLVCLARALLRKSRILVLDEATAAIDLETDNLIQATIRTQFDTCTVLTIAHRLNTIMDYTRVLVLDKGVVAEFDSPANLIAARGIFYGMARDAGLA
T5 sequence (Q92887 whole entry): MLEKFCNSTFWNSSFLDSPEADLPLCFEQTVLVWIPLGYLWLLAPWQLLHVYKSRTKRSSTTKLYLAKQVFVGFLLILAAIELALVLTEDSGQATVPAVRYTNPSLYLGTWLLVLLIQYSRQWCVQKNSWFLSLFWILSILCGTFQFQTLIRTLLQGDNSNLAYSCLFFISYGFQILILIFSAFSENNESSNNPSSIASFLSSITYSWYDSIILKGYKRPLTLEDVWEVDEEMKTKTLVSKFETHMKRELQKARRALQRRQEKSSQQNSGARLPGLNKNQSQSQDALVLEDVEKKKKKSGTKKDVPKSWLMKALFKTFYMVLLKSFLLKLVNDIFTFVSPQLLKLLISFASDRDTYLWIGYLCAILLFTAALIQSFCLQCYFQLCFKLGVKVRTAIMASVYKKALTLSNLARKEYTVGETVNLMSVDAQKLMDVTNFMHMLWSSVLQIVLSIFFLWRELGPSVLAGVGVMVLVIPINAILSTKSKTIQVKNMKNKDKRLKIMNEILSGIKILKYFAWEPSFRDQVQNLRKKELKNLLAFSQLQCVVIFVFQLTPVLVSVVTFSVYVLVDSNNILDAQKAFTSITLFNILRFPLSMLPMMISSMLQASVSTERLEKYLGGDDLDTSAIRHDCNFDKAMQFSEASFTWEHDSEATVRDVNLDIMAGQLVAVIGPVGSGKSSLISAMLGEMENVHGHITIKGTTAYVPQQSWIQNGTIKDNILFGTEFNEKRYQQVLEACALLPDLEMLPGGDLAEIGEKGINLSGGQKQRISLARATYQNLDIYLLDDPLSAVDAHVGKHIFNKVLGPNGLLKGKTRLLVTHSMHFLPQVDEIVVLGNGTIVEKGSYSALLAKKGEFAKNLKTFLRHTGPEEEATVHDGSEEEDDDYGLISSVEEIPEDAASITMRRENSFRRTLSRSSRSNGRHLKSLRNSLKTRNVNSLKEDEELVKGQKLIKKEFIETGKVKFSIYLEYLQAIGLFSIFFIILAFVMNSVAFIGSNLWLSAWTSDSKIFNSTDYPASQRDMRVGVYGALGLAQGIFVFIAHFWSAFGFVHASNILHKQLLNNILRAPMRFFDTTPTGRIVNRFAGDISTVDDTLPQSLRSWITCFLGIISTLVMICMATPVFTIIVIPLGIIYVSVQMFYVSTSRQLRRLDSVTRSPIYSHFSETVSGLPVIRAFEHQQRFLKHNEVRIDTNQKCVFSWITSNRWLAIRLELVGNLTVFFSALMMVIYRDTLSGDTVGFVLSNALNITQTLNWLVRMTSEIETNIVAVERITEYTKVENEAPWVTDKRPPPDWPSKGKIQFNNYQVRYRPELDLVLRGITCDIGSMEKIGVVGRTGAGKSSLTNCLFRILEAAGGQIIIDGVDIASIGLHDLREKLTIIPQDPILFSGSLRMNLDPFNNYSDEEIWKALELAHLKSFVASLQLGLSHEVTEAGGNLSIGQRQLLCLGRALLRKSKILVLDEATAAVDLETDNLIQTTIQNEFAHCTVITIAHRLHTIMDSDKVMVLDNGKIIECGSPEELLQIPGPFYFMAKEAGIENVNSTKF
T3 sequence (O95342 whole entry): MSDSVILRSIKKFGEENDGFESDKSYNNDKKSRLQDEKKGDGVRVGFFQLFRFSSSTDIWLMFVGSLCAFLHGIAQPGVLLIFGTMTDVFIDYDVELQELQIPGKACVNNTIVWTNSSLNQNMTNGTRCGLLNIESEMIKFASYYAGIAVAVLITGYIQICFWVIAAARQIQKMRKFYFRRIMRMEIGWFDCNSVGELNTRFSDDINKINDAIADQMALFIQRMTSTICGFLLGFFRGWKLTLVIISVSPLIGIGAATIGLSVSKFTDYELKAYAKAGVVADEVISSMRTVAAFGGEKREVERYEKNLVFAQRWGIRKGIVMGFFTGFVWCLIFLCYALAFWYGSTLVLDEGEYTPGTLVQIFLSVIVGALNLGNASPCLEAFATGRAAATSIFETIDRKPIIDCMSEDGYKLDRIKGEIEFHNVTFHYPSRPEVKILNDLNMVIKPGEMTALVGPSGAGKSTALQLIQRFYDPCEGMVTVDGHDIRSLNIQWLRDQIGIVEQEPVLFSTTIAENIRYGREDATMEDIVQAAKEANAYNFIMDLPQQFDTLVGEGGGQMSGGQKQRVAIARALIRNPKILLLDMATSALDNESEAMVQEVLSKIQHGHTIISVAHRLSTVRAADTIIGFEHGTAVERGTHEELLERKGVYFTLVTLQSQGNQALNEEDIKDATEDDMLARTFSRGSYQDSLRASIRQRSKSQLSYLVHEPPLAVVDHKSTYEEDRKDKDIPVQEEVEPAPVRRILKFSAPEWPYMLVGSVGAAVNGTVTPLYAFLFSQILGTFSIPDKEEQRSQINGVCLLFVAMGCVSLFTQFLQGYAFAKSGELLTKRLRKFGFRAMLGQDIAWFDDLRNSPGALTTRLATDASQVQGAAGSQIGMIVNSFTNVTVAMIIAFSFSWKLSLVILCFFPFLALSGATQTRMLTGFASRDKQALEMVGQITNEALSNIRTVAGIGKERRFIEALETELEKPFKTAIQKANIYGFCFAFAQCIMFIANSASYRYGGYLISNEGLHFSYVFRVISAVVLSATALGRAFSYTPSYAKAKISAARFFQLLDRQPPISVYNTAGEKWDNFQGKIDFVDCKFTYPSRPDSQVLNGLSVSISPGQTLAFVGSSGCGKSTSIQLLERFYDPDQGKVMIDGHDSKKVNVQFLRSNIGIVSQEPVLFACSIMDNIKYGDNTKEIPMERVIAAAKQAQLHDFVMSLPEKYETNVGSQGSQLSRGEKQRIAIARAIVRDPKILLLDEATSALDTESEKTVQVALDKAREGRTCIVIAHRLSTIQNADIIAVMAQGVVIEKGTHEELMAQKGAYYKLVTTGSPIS

Take `CC(C)c1nc(CN(C)C(=O)N[C@H](C(=O)N[C@@H](Cc2ccccc2)C[C@H](O)[C@H](Cc2ccccc2)NC(=O)OCc2cncs2)C(C)C)cs1` [RIT, ritonavir]: the “ABCC3/MRP3 Type of effect” value in [1] (CDCF 5 µM, 37 °C, 10 min, HEK-293 vesicles) is reported as “inh”. Also, in series [1] (CDCF uptake), the “concentration at which MRP3 transport is inhibited” value was “lower than 10 µM”. The “ABCG2/BCRP type of effect” value in [2] is given as “inh”. The “OCT1/SLC22A1 Type of effect” value in [3] (metformin 10 µM, 5 min, 37 °C, HEK-293 cells) was “strong inhibitory effect and inh”. Moreover, the “concentration of strong inhibitory effect on OCT1” value in series [3] (metformin uptake) was “below 10 µM”. Moreover, the “ABCB1/Pgp Type of effect” value in [4] is given as “inh”. Also, the “ABCB11/BSEP Type of effect” value in [5] is “strongly inhibited TC transport at low concentrations and inh”. Moreover, the “MATE1/SLC47A1 Type of effect” value in series [6] was “strong inhibitory action and inh”. Moreover, in series [7], the “peak plasma concentrations in vivo” value is 1 to 1.73 µM. Also, the “ABCC2/MRP2 Type of effect” value in [8] is reported as “did not inhibit but rather increased the probe substrate transport at high concentrations; also recorded: Increase”. In [9], the “ABCC4/MRP4 Type of effect” value is reported as “No effect”.

Values taken from PMC8426393, “Interactions of anti-COVID-19 drug candidates with hepatic transporters may cause liver toxicity and affect pharmacokinetics” (Scientific Reports, 2021).
